System: HeLa S3
Test: Cytotoxicity against human HeLa S3 cells assessed as cell viability incubated for 48 hrs by microscopic analysis
Type: functional, cell-based
Settings: HeLa S3, 48 h

Compound	IC50 [µM]
Oc1ccc(Cc2ccc(O)cc2)cc1	> 10
Oc1ccc(Cc2ccccc2O)cc1	> 10
C=C(CO)C(=O)O[C@H]1C/C(C)=C/CC/C(CO)=C/[C@H]2OC(=O)C(=C)[C@H]12	> 10
COc1cc2oc(-c3ccc(O)c(O)c3)cc(=O)c2c(O)c1O	> 10
C=C(CO)C(=O)O[C@H]1C/C(C)=C/CC/C(CO)=C/[C@H]2OC(=O)[C@@H](CN[C@H](Cc3ccccc3)C(=O)O)[C@H]12	> 10
C=C[C@@]1(C)C[C@@H](OC(=O)C(=C)CO)[C@H](C(=C)C(=O)OC/C2=C\[C@H]3OC(=O)C(=C)[C@@H]3[C@@H](OC(=O)C(=C)CO)C/C(C)=C/CC2)[C@@H](O)[C@@H]1C(=C)CO	> 10
C=C(CO)C(=O)O[C@H]1C/C(C)=C/CC/C(CO)=C/[C@H]2OC(=O)[C@@H](CN[C@@H](C(=O)O)C(C)C)[C@H]12	> 10
C=C(CO)C(=O)O[C@H]1C/C(C)=C/CC/C(CO)=C/[C@H]2OC(=O)[C@@H](CN3C[C@@H](CO)[C@]4(O)O[C@H]5C/C(C)=C/CC/C(CO)=C/[C@H]6OC(=O)[C@]4(C3)[C@H]56)[C@H]12	> 10
C=C(CO)C(=O)O[C@H]1C/C(C)=C/CC/C(CO)=C/[C@H]2OC(=O)[C@@H](CN[C@H](CC(C)C)C(=O)O)[C@H]12	> 10
O=Cc1c[nH]c2ccccc12 [3-FORMYLINDOLE]	> 10
O=c1cc(-c2ccc(O)cc2)oc2cc(O)cc(O)c12 [APIGENIN]	> 10
O=c1cc(-c2ccc(O)cc2)oc2cc(O[C@@H]3O[C@H](CO)[C@@H](O)[C@H](O)[C@H]3O)cc(O)c12 [APIGETRIN]	> 10
O=c1cc(-c2ccc(O)c(O)c2)oc2cc(O[C@@H]3O[C@H](CO)[C@@H](O)[C@H](O)[C@H]3O)cc(O)c12 [GALUTEOLIN]	> 10
